Measurements from ChEMBL document CHEMBL1201862, “PubChem BioAssay data set” (2004).
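1) Cells in 96-well plates. 2) Compound, 48 h, 5 concentrations. 3) Linear interpolation between surrounding doses. 4) Unreached endpoint = highest concentration. GI50: concentration for 50% inhibition of growth.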 Activity calls are given as the source filed them. Cut-off read from the data, not from the text of the source: active = GI50 up to about 1.1 µM and inactive = higher.

How the values were obtained:
Assay in all cases: NCI-60 cell line screen, 48 h
786-0 = test system: 786-0
A549 = test system: A549
ACHN = test system: ACHN
CAKI-1 = test system: CAKI-1
COLO 205 = test system: COLO 205
DU-145 = test system: DU-145
HCT-116 = test system: HCT-116
HL-60 = test system: HL-60
IGROV-1 = test system: IGROV-1
NCI-H226 = test system: NCI-H226
NCI-H23 = test system: NCI-H23
NCI-H522 = test system: NCI-H522
OVCAR-3 = test system: OVCAR-3
RPMI-8226 = test system: RPMI-8226
SF-539 = test system: SF-539
SK-MEL-5 = test system: SK-MEL-5
SK-OV-3 = test system: SK-OV-3
SNB-75 = test system: SNB-75
SR = test system: SR
HOP-92 = test system: HOP-92

Row | SMILES | GI50 (786-0) | GI50 (A549) | GI50 (ACHN) | GI50 (CAKI-1) | GI50 (COLO 205) | GI50 (DU-145) | GI50 (HCT-116) | GI50 (HL-60) | GI50 (IGROV-1) | GI50 (NCI-H226) | GI50 (NCI-H23) | GI50 (NCI-H522) | GI50 (OVCAR-3) | GI50 (RPMI-8226) | GI50 (SF-539) | GI50 (SK-MEL-5) | GI50 (SK-OV-3) | GI50 (SNB-75) | GI50 (SR) | GI50 (HOP-92)
1 | COc1cc(O)c2c(=O)c(OC)c(-c3ccc(OC)c(O)c3)oc2c1 [AYANIN] | 12.5 µM (inactive) | 76.6 µM (inactive) | 33.1 µM (inactive) | 6.71 µM (inactive) | 76.9 µM (inactive) | 20 µM (inactive) | 32.1 µM (inactive) | > 100 µM (inactive) | 25.4 µM (inactive) | > 100 µM (inactive) | 69.5 µM (inactive) | 29.1 µM (inactive) | 63.8 µM (inactive) | 33.1 µM (inactive) | 18.4 µM (inactive) | 20.4 µM (inactive) | 35.7 µM (inactive) | 6.14 µM (inactive) | 22.1 µM (inactive) | –
2 | CC(C)Cc1ccc(C(C)/C=C2\CCC(CN3CCOCC3)C2=O)cc1 (stereo not drawn) | 1.69 µM (inactive) | 18.6 µM (inactive) | 16 µM (inactive) | 18 µM (inactive) | 9.44 µM (inactive) | 13.7 µM (inactive) | 5.26 µM (inactive) | 2.69 µM (inactive) | 7.71 µM (inactive) | 20.3 µM (inactive) | 12.9 µM (inactive) | 5.62 µM (inactive) | 4.1 µM (inactive) | 0.665 µM (active) | 12.5 µM (inactive) | 10.4 µM (inactive) | 18.8 µM (inactive) | 8.34 µM (inactive) | 2.08 µM (inactive) | 15.5 µM (inactive)
3 | O=Cc1cc(O)c(O)c(/C=N/n2c3ccccc3c3ccccc32)c1 | 4.41 µM (inactive) | 12.8 µM (inactive) | 4.25 µM (inactive) | 16.1 µM (inactive) | 10.8 µM (inactive) | 11.4 µM (inactive) | 3.37 µM (inactive) | 2.33 µM (inactive) | – | 12.6 µM (inactive) | 8.09 µM (inactive) | 2.64 µM (inactive) | 2.44 µM (inactive) | 2.05 µM (inactive) | 6.38 µM (inactive) | – | 6.55 µM (inactive) | 2.65 µM (inactive) | 2.84 µM (inactive) | 2.72 µM (inactive)
4 | C(CCc1nnc2c(n1)CCCC2)Cc1nnc2c(n1)CCCC2 | > 100 µM (inactive) | > 100 µM (inactive) | > 100 µM (inactive) | > 100 µM (inactive) | > 100 µM (inactive) | > 100 µM (inactive) | > 100 µM (inactive) | > 100 µM (inactive) | > 100 µM (inactive) | > 100 µM (inactive) | > 100 µM (inactive) | > 100 µM (inactive) | > 100 µM (inactive) | > 100 µM (inactive) | > 100 µM (inactive) | > 100 µM (inactive) | > 100 µM (inactive) | > 100 µM (inactive) | 88.7 µM (inactive) | > 100 µM (inactive)
5 | C=C1C(=O)C2(C)OC2(C)C1C(=O)O (stereo not drawn) | > 100 µM (inactive) | > 100 µM (inactive) | > 100 µM (inactive) | > 100 µM (inactive) | > 100 µM (inactive) | > 100 µM (inactive) | > 100 µM (inactive) | > 100 µM (inactive) | > 100 µM (inactive) | > 100 µM (inactive) | > 100 µM (inactive) | > 100 µM (inactive) | > 100 µM (inactive) | > 100 µM (inactive) | > 100 µM (inactive) | > 100 µM (inactive) | > 100 µM (inactive) | > 100 µM (inactive) | > 100 µM (inactive) | > 100 µM (inactive)
6 | [N-]=[N+]=Nc1c([N+](=O)[O-])c(Cl)nc2ccccc12 | 0.541 µM (active) | 16.8 µM (inactive) | 1.76 µM (inactive) | 0.971 µM (active) | 1.74 µM (inactive) | 2.13 µM (inactive) | 1.63 µM (inactive) | 0.119 µM (active) | 2.09 µM (inactive) | 10.6 µM (inactive) | 2.6 µM (inactive) | 0.293 µM (active) | 1.41 µM (inactive) | 1.77 µM (inactive) | 3.92 µM (inactive) | 8.99 µM (inactive) | 14.5 µM (inactive) | 8.93 µM (inactive) | 0.604 µM (active) | 1.95 µM (inactive)
7 | Nc1c(C(=O)c2ccccc2)[nH]c(NCc2ccccc2)c1C(=S)Nc1ccccc1 | > 100 µM (inactive) | > 100 µM (inactive) | > 100 µM (inactive) | > 100 µM (inactive) | > 100 µM (inactive) | > 100 µM (inactive) | > 100 µM (inactive) | > 100 µM (inactive) | > 100 µM (inactive) | > 100 µM (inactive) | > 100 µM (inactive) | > 100 µM (inactive) | > 100 µM (inactive) | – | > 100 µM (inactive) | > 100 µM (inactive) | > 100 µM (inactive) | > 100 µM (inactive) | > 100 µM (inactive) | > 100 µM (inactive)
8 | Cc1ccc(S(=O)(=O)N/N=C/C2(c3ccccc3)c3ccccc3-c3ccccc32)cc1 | 12.1 µM (inactive) | 5.74 µM (inactive) | 4.94 µM (inactive) | 12.6 µM (inactive) | 3.62 µM (inactive) | 12.1 µM (inactive) | 7.08 µM (inactive) | > 100 µM (inactive) | 10.5 µM (inactive) | 14.7 µM (inactive) | 15.5 µM (inactive) | 13 µM (inactive) | 7.71 µM (inactive) | 7.45 µM (inactive) | 15.8 µM (inactive) | 11.6 µM (inactive) | 15.4 µM (inactive) | – | 7.45 µM (inactive) | 12.6 µM (inactive)
9 | COC(=O)c1ccc(C)cc1C1CN=NC12Cc1cc(C)c(C)cc1C2=O (stereo not drawn) | 54.7 µM (inactive) | 34.4 µM (inactive) | 29.5 µM (inactive) | 79.8 µM (inactive) | – | 59.2 µM (inactive) | 24.2 µM (inactive) | 19.7 µM (inactive) | > 100 µM (inactive) | 45.1 µM (inactive) | 40.6 µM (inactive) | 27.7 µM (inactive) | 49.5 µM (inactive) | 27.9 µM (inactive) | 50.6 µM (inactive) | 14.9 µM (inactive) | – | 35.9 µM (inactive) | 48.5 µM (inactive) | 34.2 µM (inactive)
10 | Cc1occc1C(=S)Nc1ccc(Cl)c(C(=O)OC(C(C)C)C(C)C)c1 | 13.7 µM (inactive) | 11.6 µM (inactive) | 12.1 µM (inactive) | 17.1 µM (inactive) | 9.59 µM (inactive) | 13.7 µM (inactive) | 10.1 µM (inactive) | 10.8 µM (inactive) | 15.2 µM (inactive) | 15.2 µM (inactive) | 8.15 µM (inactive) | 11.8 µM (inactive) | 13.4 µM (inactive) | 6.11 µM (inactive) | 16.4 µM (inactive) | 14.6 µM (inactive) | 18.4 µM (inactive) | – | 7 µM (inactive) | 7.82 µM (inactive)
11 | Cc1cc2cc3c(cc2c(-c2ccc(N)cc2)n1)OCO3 | 25.6 µM (inactive) | 74.1 µM (inactive) | 39.5 µM (inactive) | 26.5 µM (inactive) | 26.8 µM (inactive) | 49.9 µM (inactive) | 31.6 µM (inactive) | 12 µM (inactive) | 14.5 µM (inactive) | – | 61.2 µM (inactive) | 42.5 µM (inactive) | 22.4 µM (inactive) | 23.8 µM (inactive) | > 100 µM (inactive) | 24.2 µM (inactive) | > 100 µM (inactive) | – | 15.6 µM (inactive) | 13.9 µM (inactive)
12 | N#CC12CC(C=O)=C(N)C1(C#N)CC(C=O)=C2N (stereo not drawn) | > 100 µM (inactive) | > 100 µM (inactive) | > 100 µM (inactive) | > 100 µM (inactive) | > 100 µM (inactive) | 46 µM (inactive) | 47.3 µM (inactive) | 23.7 µM (inactive) | 71.9 µM (inactive) | > 100 µM (inactive) | 28.3 µM (inactive) | > 100 µM (inactive) | – | 52.6 µM (inactive) | 81.8 µM (inactive) | 20.8 µM (inactive) | > 100 µM (inactive) | 44.4 µM (inactive) | 37.7 µM (inactive) | 32.5 µM (inactive)
13 | COC(=O)c1cc2c(c(C(=O)OC)c1)CCC2 | > 100 µM (inactive) | > 100 µM (inactive) | > 100 µM (inactive) | 20.7 µM (inactive) | – | > 100 µM (inactive) | 76.6 µM (inactive) | 70.6 µM (inactive) | > 100 µM (inactive) | – | > 100 µM (inactive) | 58.2 µM (inactive) | 49.4 µM (inactive) | > 100 µM (inactive) | > 100 µM (inactive) | 56.1 µM (inactive) | > 100 µM (inactive) | 34.8 µM (inactive) | 30.3 µM (inactive) | 49.9 µM (inactive)
14 | CCCc1c(O)nc(Nc2nc3ccccc3[nH]2)[nH]c1=O | > 100 µM (inactive) | > 100 µM (inactive) | > 100 µM (inactive) | > 100 µM (inactive) | > 100 µM (inactive) | > 100 µM (inactive) | > 100 µM (inactive) | 84.9 µM (inactive) | > 100 µM (inactive) | > 100 µM (inactive) | > 100 µM (inactive) | 71.3 µM (inactive) | – | > 100 µM (inactive) | > 100 µM (inactive) | > 100 µM (inactive) | > 100 µM (inactive) | > 100 µM (inactive) | > 100 µM (inactive) | > 100 µM (inactive)
15 | O=C1CCc2cc3c(cc21)CC1(Cc2cc4c(cc2C1)CCCC4)C3 | – | 88.9 µM (inactive) | > 100 µM (inactive) | – | 33 µM (inactive) | > 100 µM (inactive) | 37.2 µM (inactive) | 27.9 µM (inactive) | 97.5 µM (inactive) | – | > 100 µM (inactive) | 26 µM (inactive) | 53.6 µM (inactive) | > 100 µM (inactive) | > 100 µM (inactive) | 24.6 µM (inactive) | 79.4 µM (inactive) | 14.6 µM (inactive) | 5.52 µM (inactive) | 0.0489 µM (active)
